{"source": "patent US11173103B1", "about": "“Retinoids and epidermal stimulants” (Owen Biosciences, Inc., priority 2017, dated 2021)", "key": {"HBEGF": {"tested_on": "HBEGF", "assay": "DNA microarray assay, expression of proliferative/growth-factor related genes", "type": "cell-based", "conditions": "DMSO delivered retinol at 5 ppm; retinyl linoleate and lysophospholipid concentrate at a ratio of 1:0.4"}, "FGF": {"tested_on": "FGF", "assay": "DNA microarray assay, expression of proliferative/growth-factor related genes", "type": "cell-based", "conditions": "DMSO delivered retinol at 5 ppm; retinyl linoleate and lysophospholipid concentrate at a ratio of 1:0.4"}, "CSF2": {"tested_on": "CSF2", "assay": "DNA microarray assay, expression of proliferative/growth-factor related genes", "type": "cell-based", "conditions": "DMSO delivered retinol at 5 ppm; retinyl linoleate and lysophospholipid concentrate at a ratio of 1:0.4"}, "mature murine skin": {"tested_on": "mature murine skin", "assay": "Histology of punch biopsies of treated murine skin (epidermal thickening, proliferation, keratinocyte differentiation)", "type": "in vivo, mice", "conditions": "for basal cell turn over / formation of normally-functioning supra basal granular keratinocytes: applied to the skin of mice, all trans retinoic acid 0.1%, all trans retinol 1.0%", "description": "Photomicrographs of murine tissue samples treated according to methods of the present invention are presented the figures. Differing amounts of inter-laminar keratinocyte differentiation were observed. In some cases, there is intra-laminar disruption, in which stratum corneum (SC) and granular layer (GL) are separated, indicating little granular keratinocyte formation and/or suppression of one or both of granular keratinocyte extracellular desmosomal proteins and/or reduced production of laminar granules (proteases, lipids). This was not considered an artifact of the micro-tome blade.\nMore particularly, histological observations, including degree of “keratinocyte differentiation” are described by reference to photomicrographs of retired breeder mice obtained from Charles River Laboratories, Inc. (Wilmington, Mass.). An area of approximately one square inch was shaved. Test compositions (e.g., control=carrier vehicle with ingredient known to be irritating; test=same carrier and known irritant from control+phospholipid) were administered in accordance with methods of the inventions. Punch biopsies of full thickness skin and subcutaneous fat were taken as follows: skin was swabbed with an antiseptic and injected with a local anaesthetic; an incision was made, and a tissue specimen was removed and preserved in 10% neutral buffered formalin at a volume of approximately ten times that of the tissue). Excision sites were sutured. The preserved tissues samples were sent to Louisiana State University, School of Veterinary Medicine for processing and analysis. More particularly, tissue was processed in graded alcohol [70% (v/v) ethanol, 90% (v/v) ethanol, absolute ethanol] followed by graded xylene [[…], absolute xylene]. Next the processed tissue was placed in blocks/molds filled with paraffin wax liquid, in an orientation with the epidermis on top, with ice on top to hold the tissue in place. Wax blocks were cooled in ice and sectioned at a thickness of 5-15 μm using a microtome with disposable blade (Leica Microtome Model RM2255). Microtomed sections were placed on adhesive slides, incubated at 37° C. for 24 hours (i.e., on slide racks), and then stored in slide containers at room temperature until H&E staining is performed to visualize histological microstructures. All histological samples were micro photographed at 400× under normal light with standard digital equipment. These photos were transferred to PHOTOSHOP® computer imaging software from Adobe Systems Pvt. Ltd., in which measurements of epidermal thickness, SC thickness, granulation, layering were determined."}, "TGF alpha": {"tested_on": "TGF alpha", "assay": "DNA microarray assay, expression of proliferative/growth-factor related genes", "type": "cell-based", "conditions": "DMSO delivered retinol at 5 ppm; retinyl linoleate and lysophospholipid concentrate at a ratio of 1:0.4"}, "TGF beta 1": {"tested_on": "TGF beta 1", "assay": "DNA microarray assay, expression of proliferative/growth-factor related genes", "type": "cell-based", "conditions": "DMSO delivered retinol at 5 ppm; retinyl linoleate and lysophospholipid concentrate at a ratio of 1:0.4"}, "[1]": {"conditions": "bioemulsion applied once daily over 4 consecutive days (retinyl phosphate 1%)"}, "[2]": {"conditions": "FIG. 7, bioemulsion with 1% retinyl linoleate"}, "[3]": {"conditions": "1% in a bioemulsion applied once daily over 2 consecutive days"}, "[4]": {"conditions": "1% in a bioemulsion applied once daily over three consecutive days"}}, "data": [{"compound": "CC1=C(/C=C/C(C)=C/C=C/C(C)=C/CO)C(C)(C)CCC1", "note": "[DMSO Delivered Retinol, Retinol]", "values": [{"measurement": "HBEGF level of expression (change)", "setting": "HBEGF", "value": "−50", "unit": "%"}, {"measurement": "FGF level of expression (change)", "setting": "FGF", "value": "−50", "unit": "%"}, {"measurement": "CSF2 level of expression (change)", "setting": "CSF2", "value": "−25", "unit": "%"}, {"measurement": "basal cell turn over", "setting": "mature murine skin", "value": "stimulates"}, {"measurement": "formation of normally-functioning supra basal granular keratinocytes", "setting": "mature murine skin", "value": "inhibits or suppresses"}, {"measurement": "TGF alpha level of expression (change)", "setting": "TGF alpha", "value": "+200%"}, {"measurement": "TGF beta 1 level of expression (change)", "setting": "TGF beta 1", "value": "−50", "unit": "%"}]}, {"compound": "CC1=C(/C=C/C(C)=C/C=C/C(C)=C/C(=O)O)C(C)(C)CCC1", "note": "[all trans retinoic acid, Retinoic acid]", "values": [{"measurement": "basal cell turn over", "setting": "mature murine skin", "value": "stimulates"}, {"measurement": "formation of normally-functioning supra basal granular keratinocytes", "setting": "mature murine skin", "value": "inhibits or suppresses"}]}, {"compound": "CC(C=CC1=C(C)CCCC1(C)C)=CC=CC(C)=CCOC(=O)CCC(=O)OCC=C(C)C=CC=C(C)C=CC1=C(C)CCCC1(C)C", "note": "[diretinyl succinate]", "values": [{"measurement": "keratinocyte differentiation", "setting": "mature murine skin; [1]", "value": "de minimis"}, {"measurement": "proliferation", "setting": "mature murine skin; [1]", "value": "De minimis"}]}, {"compound": "CCCCC/C=C\\C/C=C\\CCCCCCCC(=O)OC/C=C(C)/C=C/C=C(C)/C=C/C1=C(C)CCCC1(C)C", "note": "[retinyl linoleate, Retinyl linoleate]", "values": [{"measurement": "SC density", "setting": "mature murine skin; [2]", "value": "Increased"}, {"measurement": "differentiation", "setting": "mature murine skin; [2]", "value": "without significant differentiation"}, {"measurement": "proliferation", "setting": "mature murine skin; [2]", "value": "Increased"}]}, {"compound": "CC1=C(/C=C/C(C)=C\\C=C\\C(C)=C\\COP(=O)(O)O)C(C)(C)CCC1", "note": "[retinyl phosphate]", "values": [{"measurement": "keratinocyte differentiation", "setting": "mature murine skin; [1]", "value": "de minimis"}, {"measurement": "proliferation", "setting": "mature murine skin; [1]", "value": "De minimis"}]}, {"compound": "Glyceryl diretinoate", "values": [{"measurement": "differentiation", "setting": "mature murine skin; [3]", "value": "good"}, {"measurement": "proliferation", "setting": "mature murine skin; [3]", "value": "good"}]}, {"compound": "Monoglyceryl retinoate [glyceryl mono retinoate]", "values": [{"measurement": "differentiation", "setting": "mature murine skin; [3]", "value": "excellent"}, {"measurement": "proliferation", "setting": "mature murine skin; [3]", "value": "excellent"}]}, {"compound": "acetyl-n-phenylalanine retinoate", "values": [{"measurement": "differentiation", "setting": "mature murine skin; [4]", "value": "good"}, {"measurement": "proliferation", "setting": "mature murine skin; [4]", "value": "good"}]}]}
